This is an account of results in patent US20240270762A1, “PENICILLIN-BINDING PROTEIN INHIBITORS” (priority 2021, published 2024).

The test system of experiment [1] is B. humptydooensis ATCC BAA-2767. Nature of the experiment: microbe, parasite or virus in culture. It counts as cell-based. To be noted: Burkholderia humptydooensis, ATCCBAA2767, read-out: Minimum inhibitory concentration (MIC), B. humptydooensis ATCC BAA-2767.
Experiment [2] concerns N. gonorrhoeae ATCC 49226. Nature of the experiment: Liquid broth MIC in Fastidious broth. To be noted: Neisseria gonorrhoeae, ATCC49226, read-out: Minimum Inhibitory Concentration, ATCC 49226.
For the next experiment, the system named is P. aeruginosa ATCC 35151. Nature of the experiment: microbe, parasite or virus in culture. It counts as cell-based. The following applies: Pseudomonas aeruginosa, ATCC35151, read-out: Minimum inhibitory concentration, P. aeruginosa ATCC 35151.
Experiment [3] has as its system P. aeruginosa (ΔmexAB-oprM). In words: Broth microdilution MIC in iron-depleted CAMHB (IDM). It counts as cell-based. To be noted: Pseudomonas aeruginosa; iron-depleted CAMHB (IDM); […]; read-out: Minimum inhibitory concentration, P. aeruginosa ΔmexAB-oprM. (In general: Dilution methods test growth across graded concentrations, often in twofold steps.)
The test system of a further experiment is N. gonorrhoeae WHO G. In words: Liquid broth MIC in Fastidious broth. To be noted: Neisseria gonorrhoeae, read-out: Minimum Inhibitory Concentration, WHO G.
In a further experiment the test system is N. gonorrhoeae WHO Z. Nature of the experiment: Liquid broth MIC in Fastidious broth. To be noted: Neisseria gonorrhoeae, read-out: Minimum Inhibitory Concentration, WHO Z.
The subject of a further experiment is A. baumannii CDC-0083. In words: microbe, parasite or virus in culture. It counts as cell-based. The following applies: Acinetobacter baumannii, CDC0083, read-out: MIC, A. baumannii CDC-0083.
The next experiment has as its system P. aeruginosa CDC-0110. Nature of the experiment: microbe, parasite or virus in culture. To be noted: Pseudomonas aeruginosa, CDC0110, read-out: Minimum inhibitory concentration, P. aeruginosa CDC-0110. It counts as cell-based.
The subject of a further experiment is N. gonorrhoeae WHO X. Nature of the experiment: Liquid broth MIC in Fastidious broth. To be noted: Neisseria gonorrhoeae, read-out: Minimum Inhibitory Concentration, WHO X.

Values after ≈ are worked out from the molar mass of the structure shown.

On to `O=C(NCCCS(=O)(=O)N1CCN(C(=O)NC(C(=O)N[C@H]2Cc3ccc(F)c(C(=O)O)c3OB2O)c2cc(F)c(O)c(O)c2Cl)C1=O)Nc1ccncc1` (stereo partly drawn) [Example 291, (3R)-3-(2-(2-chloro-5-fluoro-3,4-dihydroxyphenyl)-2-(2-oxo-3-((3-(3-(pyridin-4-yl)ureido)propyl)sulfonyl)imidazolidine-1-carboxamido)acetamido)-7-fluoro-2-hydroxy-3,4-dihydro-2H-benzo[e][1,2]oxaborinine-8-carboxylic acid], for which the MIC in experiment [1] is under 1 µg/mL; in [2], 16 to 32 µg/mL (≈ 20.1 to 40.2 µM); in the experiment with P. aeruginosa ATCC 35151, under 1 µg/mL; in [3], under 1 µg/mL; in the experiment on N. gonorrhoeae WHO G, 16 to 32 µg/mL (≈ 20.1 to 40.2 µM); in the experiment on N. gonorrhoeae WHO Z, 4 to 8 µg/mL (≈ 5.03 to 10.1 µM). In addition, the MIC in the experiment on A. baumannii CDC-0083 is under 1 µg/mL; with P. aeruginosa CDC-0110 it was 2 to 4 µg/mL (≈ 2.51 to 5.03 µM); in the experiment with N. gonorrhoeae WHO X it was over 64 µg/mL.
As for `O=C(O)c1c(F)ccc2c1OB(O)[C@@H](NC(=O)C(NC(=O)N1CCN(Cc3ccc(O)c(O)c3Cl)C(=O)C1=O)c1cc(F)c(O)c(O)c1Cl)C2` (stereo partly drawn) [Example 292, (3R)-3-(2-(4-(2-chloro-3,4-dihydroxybenzyl)-2,3-dioxopiperazine-1-carboxamido)-2-(2-chloro-5-fluoro-3,4-dihydroxyphenyl)acetamido)-7-fluoro-2-hydroxy-3,4-dihydro-2H-benzo[e][1,2]oxaborinine-8-carboxylic acid], the MIC is over 128 µg/mL in experiment [1]; over 64 µg/mL in experiment [2]; under 1 µg/mL in the experiment on P. aeruginosa ATCC 35151; under 1 µg/mL in experiment [3]; over 64 µg/mL with N. gonorrhoeae WHO G; over 64 µg/mL in the experiment on N. gonorrhoeae WHO Z. Also, the MIC in the experiment with A. baumannii CDC-0083 was over 128 µg/mL; with P. aeruginosa CDC-0110, over 128 µg/mL; in the experiment on N. gonorrhoeae WHO X it was over 64 µg/mL.
As to `O=C(O)c1c(F)ccc2c1OB(O)[C@@H](NC(=O)C(NC(=O)N1CCN(C3CCN(C(=O)c4cccc(O)c4)CC3)C(=O)C1=O)c1cc(F)c(O)c(O)c1Cl)C2` (stereo partly drawn) [Example 293, (3R)-3-(2-(2-chloro-5-fluoro-3,4-dihydroxyphenyl)-2-(4-(1-(3-hydroxybenzoyl)piperidin-4-yl)-2,3-dioxopiperazine-1-carboxamido)acetamido)-7-fluoro-2-hydroxy-3,4-dihydro-2H-benzo[e][1,2]oxaborinine-8-carboxylic acid], the MIC in experiment [1] was under 1 µg/mL; in [2], 16 to 32 µg/mL (≈ 20.4 to 40.7 µM); with P. aeruginosa ATCC 35151, under 1 µg/mL; in experiment [3] it was under 1 µg/mL; in the experiment with N. gonorrhoeae WHO G, 16 to 32 µg/mL (≈ 20.4 to 40.7 µM); in the experiment with N. gonorrhoeae WHO Z, over 64 µg/mL. Further, the MIC was under 1 µg/mL with A. baumannii CDC-0083, under 1 µg/mL with P. aeruginosa CDC-0110 and over 64 µg/mL in the experiment on N. gonorrhoeae WHO X.
`O=C(NCCCN1CCN(C(=O)N[C@@H](C(=O)N[C@H]2Cc3ccc(F)c(C(=O)O)c3OB2O)c2cc(F)c(O)c(O)c2Cl)C(=O)C1=O)c1ccncc1` [Example 294, (R)-3-((R)-2-(2-chloro-5-fluoro-3,4-dihydroxyphenyl)-2-(4-(3-(isonicotinamido)propyl)-2,3-dioxopiperazine-1-carboxamido)acetamido)-7-fluoro-2-hydroxy-3,4-dihydro-2H-benzo[e][1,2]oxaborinine-8-carboxylic acid]: the MIC in [1] is under 1 µg/mL; in [2], 16 to 32 µg/mL (≈ 21.5 to 43 µM); in the experiment with P. aeruginosa ATCC 35151 it was under 1 µg/mL; in experiment [3] it was under 1 µg/mL; in the experiment with N. gonorrhoeae WHO G, 16 to 32 µg/mL (≈ 21.5 to 43 µM); in the experiment with N. gonorrhoeae WHO Z, 16 to 32 µg/mL (≈ 21.5 to 43 µM). The MIC in the experiment on A. baumannii CDC-0083 is under 1 µg/mL; in the experiment on P. aeruginosa CDC-0110, under 1 µg/mL; in the experiment on N. gonorrhoeae WHO X, over 64 µg/mL.
On to `O=C(NCCCN1CCN(C(=O)NC(C(=O)N[C@H]2Cc3ccc(F)c(C(=O)O)c3OB2O)c2cc(F)c(O)c(O)c2Cl)C(=O)C1=O)c1ccncc1Cl` (stereo partly drawn) [Example 295, (3R)-3-(2-(2-chloro-5-fluoro-3,4-dihydroxyphenyl)-2-(4-(3-(3-chloroisonicotinamido)propyl)-2,3-dioxopiperazine-1-carboxamido)acetamido)-7-fluoro-2-hydroxy-3,4-dihydro-2H-benzo[e][1,2]oxaborinine-8-carboxylic acid], for which the MIC in experiment [1] is under 1 µg/mL; in [2], 16 to 32 µg/mL (≈ 20.5 to 41.1 µM); in the experiment with P. aeruginosa ATCC 35151, under 1 µg/mL; in experiment [3] it was under 1 µg/mL; in the experiment with N. gonorrhoeae WHO G, 16 to 32 µg/mL (≈ 20.5 to 41.1 µM); with N. gonorrhoeae WHO Z, over 64 µg/mL. The MIC was under 1 µg/mL in the experiment on A. baumannii CDC-0083, under 1 µg/mL in the experiment on P. aeruginosa CDC-0110 and over 64 µg/mL in the experiment with N. gonorrhoeae WHO X.
For `O=C(NCCCN1CCN(C(=O)N[C@@H](C(=O)N[C@H]2Cc3ccc(F)c(C(=O)O)c3OB2O)c2cc(F)c(O)c(O)c2Cl)C(=O)C1=O)c1ccncc1O` [Example 296, (R)-3-((R)-2-(2-chloro-5-fluoro-3,4-dihydroxyphenyl)-2-(4-(3-(3-hydroxyisonicotinamido)propyl)-2,3-dioxopiperazine-1-carboxamido)acetamido)-7-fluoro-2-hydroxy-3,4-dihydro-2H-benzo[e][1,2]oxaborinine-8-carboxylic acid], the MIC in experiment [1] was 2 to 4 µg/mL (≈ 2.63 to 5.26 µM); in experiment [2], 16 to 32 µg/mL (≈ 21 to 42.1 µM); in the experiment on P. aeruginosa ATCC 35151, under 1 µg/mL; in experiment [3] it was under 1 µg/mL; in the experiment on N. gonorrhoeae WHO G, 16 to 32 µg/mL (≈ 21 to 42.1 µM); in the experiment on N. gonorrhoeae WHO Z, over 64 µg/mL. Also, the MIC is under 1 µg/mL with A. baumannii CDC-0083, under 1 µg/mL with P. aeruginosa CDC-0110 and over 64 µg/mL in the experiment on N. gonorrhoeae WHO X.
As to `Cc1cnccc1C(=O)NCCCN1CCN(C(=O)NC(C(=O)N[C@H]2Cc3ccc(F)c(C(=O)O)c3OB2O)c2cc(F)c(O)c(O)c2Cl)C(=O)C1=O` (stereo partly drawn) [Example 297, (3R)-3-(2-(2-chloro-5-fluoro-3,4-dihydroxyphenyl)-2-(4-(3-(3-methylisonicotinamido)propyl)-2,3-dioxopiperazine-1-carboxamido)acetamido)-7-fluoro-2-hydroxy-3,4-dihydro-2H-benzo[e][1,2]oxaborinine-8-carboxylic acid], the MIC is under 1 µg/mL in [1]; 16 to 32 µg/mL (≈ 21.1 to 42.2 µM) in [2]; under 1 µg/mL in the experiment on P. aeruginosa ATCC 35151; under 1 µg/mL in experiment [3]; 16 to 32 µg/mL (≈ 21.1 to 42.2 µM) with N. gonorrhoeae WHO G; over 64 µg/mL with N. gonorrhoeae WHO Z. Also, the results for the MIC in the experiment with A. baumannii CDC-0083, with P. aeruginosa CDC-0110 and in the experiment on N. gonorrhoeae WHO X were under 1 µg/mL, under 1 µg/mL and over 64 µg/mL, respectively.
Take `Cc1cc(C(=O)NCCCN2CCN(C(=O)N[C@@H](C(=O)N[C@H]3Cc4ccc(F)c(C(=O)O)c4OB3O)c3cc(F)c(O)c(O)c3Cl)C(=O)C2=O)ccn1` [Example 298, (R)-3-((R)-2-(2-chloro-5-fluoro-3,4-dihydroxyphenyl)-2-(4-(3-(2-methylisonicotinamido)propyl)-2,3-dioxopiperazine-1-carboxamido)acetamido)-7-fluoro-2-hydroxy-3,4-dihydro-2H-benzo[e][1,2]oxaborinine-8-carboxylic acid]: the MIC in [1] is under 1 µg/mL; in experiment [2] it was 16 to 32 µg/mL (≈ 21.1 to 42.2 µM); with P. aeruginosa ATCC 35151 it was under 1 µg/mL; in [3] it was under 1 µg/mL; with N. gonorrhoeae WHO G it was 16 to 32 µg/mL (≈ 21.1 to 42.2 µM); with N. gonorrhoeae WHO Z it was over 64 µg/mL. The MIC with A. baumannii CDC-0083 is under 1 µg/mL; with P. aeruginosa CDC-0110, under 1 µg/mL; in the experiment with N. gonorrhoeae WHO X it was over 64 µg/mL.
Turning to `O=C(NCCCN1CCN(C(=O)N[C@H](C(=O)N[C@H]2Cc3ccc(F)c(C(=O)O)c3OB2O)c2cc(F)c(O)c(O)c2Cl)C(=O)C1=O)c1ccnc(F)c1F` [Example 299, (R)-3-((S)-2-(2-chloro-5-fluoro-3,4-dihydroxyphenyl)-2-(4-(3-(2,3-difluoroisonicotinamido)propyl)-2,3-dioxopiperazine-1-carboxamido)acetamido)-7-fluoro-2-hydroxy-3,4-dihydro-2H-benzo[e][1,2]oxaborinine-8-carboxylic acid], the MIC in experiment [1] is over 128 µg/mL; in experiment [2], over 64 µg/mL; in the experiment on P. aeruginosa ATCC 35151 it was under 1 µg/mL; in experiment [3], 2 to 4 µg/mL (≈ 2.56 to 5.12 µM); with N. gonorrhoeae WHO G, over 64 µg/mL; in the experiment on N. gonorrhoeae WHO Z, over 64 µg/mL. Besides, the MIC is 2 to 4 µg/mL (≈ 2.56 to 5.12 µM) in the experiment on A. baumannii CDC-0083, 8 to 16 µg/mL (≈ 10.2 to 20.5 µM) with P. aeruginosa CDC-0110 and over 64 µg/mL with N. gonorrhoeae WHO X.
As to `O=C(NCCCN1CCN(C(=O)N[C@@H](C(=O)N[C@H]2Cc3ccc(F)c(C(=O)O)c3OB2O)c2cc(F)c(O)c(O)c2Cl)C(=O)C1=O)c1ccnc(F)c1F` [Example 300, (R)-3-((R)-2-(2-chloro-5-fluoro-3,4-dihydroxyphenyl)-2-(4-(3-(2,3-difluoroisonicotinamido)propyl)-2,3-dioxopiperazine-1-carboxamido)acetamido)-7-fluoro-2-hydroxy-3,4-dihydro-2H-benzo[e][1,2]oxaborinine-8-carboxylic acid], the MIC is under 1 µg/mL in experiment [1]; 16 to 32 µg/mL (≈ 20.5 to 41 µM) in [2]; under 1 µg/mL in the experiment with P. aeruginosa ATCC 35151; under 1 µg/mL in experiment [3]; 16 to 32 µg/mL (≈ 20.5 to 41 µM) in the experiment on N. gonorrhoeae WHO G; over 64 µg/mL in the experiment on N. gonorrhoeae WHO Z. Besides, the results for the MIC in the experiment on A. baumannii CDC-0083, with P. aeruginosa CDC-0110 and in the experiment with N. gonorrhoeae WHO X were under 1 µg/mL, under 1 µg/mL and over 64 µg/mL, respectively.
